SMILES strings stand for the structures.

A word on the IC50: it is the concentration that inhibits the measured activity by half.

In data set [1] the test system is patients with mild-to-moderate COPD. Particulars: cited from earlier work.
A further data set concerns mice with lung cancer. Nature of the data set: IVC stenosis DVT in mice with lung cancer (LLC1 cells). It is filed as in vivo, mouse. Particulars: thrombus harvested 48-hour post-stenosis, FIG. 23. How it is done:
Lewis lung carcinoma (LLC1) cell line will be obtained from American Type Culture Collection (ATCC). The cell line was originally derived from a Lewis lung carcinoma of a C57BL mouse strain. The cells will be grown in Dulbecco's Modified Eagle Medium (DMEM) supplemented with 10% FCS, 2 mM L-glutamine, 100 U/ml penicillin, 100 μg/ml streptomycin, and 0.1% fungizone. The cells will be maintained at 37° C. in a humidified atmosphere with 5% CO2. The LLC1 cells (100 μL) will be injected once intravenously.
Macitentan at the dose of 2, 5 and 10 mg/kg will be administered orally once a day from the day of cancer induction until the end of the study.
Deep vein thrombosis (DVT) will be induced in mice after 14 days of tumor induction. Briefly, anesthetized mice will undergo laparotomy, the intestine will be exteriorized, and the intra renal IVC will be exposed. The IVC will then be dissected away from the aorta. For stenosis, IVC will be exposed, a space holder (30-gauge, 3-mm long needle) will be positioned on the outside of the vessel, and a permanent narrowing ligature will be placed exactly below the left renal vein. Subsequently, the needle will be removed to restrict blood flow to 80-90%. […]
Thrombus size and thrombosis incidence on day 1 and day 2 following DVT surgery will be evaluated by ultrasonography. […]

For a further data set, the target named is T1, ITGA9-VCAM1 binding (Homo sapiens, UniProt Q13797).
T1 construct: purchased R&D Systems
T1 sequence (Q13797 30-981 limits assumed): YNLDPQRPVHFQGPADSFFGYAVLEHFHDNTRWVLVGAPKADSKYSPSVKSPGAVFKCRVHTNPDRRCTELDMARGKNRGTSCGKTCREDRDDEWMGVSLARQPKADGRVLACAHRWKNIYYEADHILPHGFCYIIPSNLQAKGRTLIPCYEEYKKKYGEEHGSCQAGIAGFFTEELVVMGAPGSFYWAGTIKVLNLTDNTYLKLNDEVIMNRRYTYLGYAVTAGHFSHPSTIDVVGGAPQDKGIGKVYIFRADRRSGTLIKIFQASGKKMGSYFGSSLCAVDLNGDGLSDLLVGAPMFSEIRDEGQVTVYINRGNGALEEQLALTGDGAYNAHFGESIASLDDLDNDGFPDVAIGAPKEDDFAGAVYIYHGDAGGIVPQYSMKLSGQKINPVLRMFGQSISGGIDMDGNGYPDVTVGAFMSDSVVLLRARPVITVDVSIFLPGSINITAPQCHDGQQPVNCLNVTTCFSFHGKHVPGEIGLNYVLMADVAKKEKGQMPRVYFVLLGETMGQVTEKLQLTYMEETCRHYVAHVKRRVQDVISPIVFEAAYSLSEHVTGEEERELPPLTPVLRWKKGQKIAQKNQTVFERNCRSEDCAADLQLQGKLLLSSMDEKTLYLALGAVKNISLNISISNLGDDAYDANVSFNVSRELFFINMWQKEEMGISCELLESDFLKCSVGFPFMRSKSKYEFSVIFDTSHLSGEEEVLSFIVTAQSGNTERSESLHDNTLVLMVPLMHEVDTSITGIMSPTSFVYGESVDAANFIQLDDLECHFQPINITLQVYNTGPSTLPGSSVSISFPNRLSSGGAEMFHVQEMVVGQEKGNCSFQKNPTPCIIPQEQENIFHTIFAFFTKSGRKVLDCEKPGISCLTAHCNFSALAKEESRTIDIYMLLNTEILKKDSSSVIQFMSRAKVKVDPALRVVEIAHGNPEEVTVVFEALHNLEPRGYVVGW
T1 sequence (P05556 21-728 partner limits assumed): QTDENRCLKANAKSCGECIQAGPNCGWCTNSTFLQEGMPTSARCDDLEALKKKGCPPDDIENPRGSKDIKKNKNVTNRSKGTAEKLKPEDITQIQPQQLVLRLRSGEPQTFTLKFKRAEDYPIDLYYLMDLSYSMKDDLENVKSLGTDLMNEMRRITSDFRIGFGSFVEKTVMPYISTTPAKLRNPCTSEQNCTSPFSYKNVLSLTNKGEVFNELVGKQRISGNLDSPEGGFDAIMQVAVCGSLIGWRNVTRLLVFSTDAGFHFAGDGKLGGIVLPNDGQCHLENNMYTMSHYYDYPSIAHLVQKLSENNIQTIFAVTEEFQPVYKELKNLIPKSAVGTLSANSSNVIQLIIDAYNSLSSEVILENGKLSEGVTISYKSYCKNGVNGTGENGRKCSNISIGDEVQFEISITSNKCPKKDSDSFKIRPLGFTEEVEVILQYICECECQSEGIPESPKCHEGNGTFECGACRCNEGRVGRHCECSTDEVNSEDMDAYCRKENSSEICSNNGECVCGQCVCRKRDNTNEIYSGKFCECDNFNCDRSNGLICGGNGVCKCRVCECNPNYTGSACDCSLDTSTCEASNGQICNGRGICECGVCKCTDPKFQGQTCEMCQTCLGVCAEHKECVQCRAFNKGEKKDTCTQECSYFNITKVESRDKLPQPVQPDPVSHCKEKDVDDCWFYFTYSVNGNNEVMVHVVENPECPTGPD
Put plainly: ITGA9 binding assay (ITGA9-VCAM1 binding, cell-free). How it is done:
Turning next to FIG. 2, another aspect of the invention is shown as a ITGA9 binding assay. Briefly, purified human VCAM1 (R&D Systems) diluted to 5 μg/ml in TBS+ buffer (25 mM Tris pH 7.4, 137 mM NaCl, 2.7 mM KCl, 1 mM CaCl2, 1 Mm MgCl2, 1 mM MnC12) was added to wells of a 96-well transparent microtiter plate and incubated overnight at 4° C. Wells were washed 3 times with buffer and blocking buffer (TBS+ with 1% bovine serum albumin) was added followed by incubation for 1 hour at 37° C., and then washing. Recombinant human integrin ITGA9 (R&D Systems) was diluted to 1 μg/ml in TBS+/0.1% bovine serum albumin. Macitentan was diluted into the integrin solution and added to the washed ligand-coated plate according to a standard template with each sample repeated in triplicate. After incubation for 2 hours at room temperature, the plate was washed 3 times with 150 μl TBS+ buffer. To each well, biotinylated anti-β1 (catalog BAF1778, R&D Systems) at 1 μg/ml in TBS+/0.1% BSA was added, and the plate covered and incubated for 1 hour at RT. After washing the plate 3 times with TBS+ buffer, streptavidin conjugated horseradish peroxidase (R&D Systems) diluted in TBS+ blocking buffer was added to the wells and the plate incubated for 20 minutes at room temperature. […] After incubation for 20 minutes at RT, plates were read by colorimetric detection at 450 nm wavelength. […]

The test system of the next data set is wild-type mice. Nature of the data set: In vivo venous thrombosis using IVC stenosis (DVT surgery). Also on record: species or system mouse. Particulars: 10 mg/kg; measured at 24-hr; vs vehicle; FIG. 3. How it is done:
Next, we performed in vivo venous thrombosis using IVC stenosis (DVT surgery) in 30 wild-type mice and randomized them into control (vehicle, n=15) and treatment (Macitentan, 10 mg/kg, n=15) groups. The thrombus weight and incidence were measured at 24-hr.

A further data set addresses Src (Mus musculus, UniProt P05480). Particulars: in vivo dose of 1.5 mg/kg; cited from earlier work.
For data set [2], the system named is Src family of protein tyrosine kinases. Particulars: cited from earlier work.

Src, sequence (P05480 whole entry): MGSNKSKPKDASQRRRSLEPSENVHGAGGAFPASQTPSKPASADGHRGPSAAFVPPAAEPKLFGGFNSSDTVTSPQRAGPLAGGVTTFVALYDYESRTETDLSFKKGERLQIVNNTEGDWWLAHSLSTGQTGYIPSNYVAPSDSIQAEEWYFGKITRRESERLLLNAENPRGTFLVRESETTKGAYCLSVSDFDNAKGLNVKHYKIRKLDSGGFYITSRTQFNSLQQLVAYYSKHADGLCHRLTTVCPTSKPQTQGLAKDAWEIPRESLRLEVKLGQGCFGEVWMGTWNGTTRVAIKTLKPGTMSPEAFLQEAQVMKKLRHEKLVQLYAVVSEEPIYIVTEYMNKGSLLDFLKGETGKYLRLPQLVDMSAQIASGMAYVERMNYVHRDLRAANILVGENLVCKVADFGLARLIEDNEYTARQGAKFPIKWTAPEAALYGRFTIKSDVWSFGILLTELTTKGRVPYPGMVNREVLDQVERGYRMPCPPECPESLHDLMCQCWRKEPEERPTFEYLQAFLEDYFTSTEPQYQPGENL

Regarding `Cc1c(F)cccc1NC(=O)Nc1ccc(Cl)c(S(=O)(=O)[C@H]2CCCNC2)c1O` [Danirixin], in data set [1] (danirixin 50 mg), the number of pneumonias result is “increased number of pneumonias”. Also, the incidence of exacerbation entry in data set [1] (danirixin-treated groups, COPD patients) is on record as “increased incidence of exacerbation”.
For `CCCNS(=O)(=O)Nc1ncnc(OCCOc2ncc(Br)cn2)c1-c1ccc(Br)cc1` [Macitentan], the “DVT severity (IVC thrombus weight)” value with mice with lung cancer was “significantly reduced”. Also, on ITGA9-VCAM1 binding, the “binds to integrin α9 and inhibits its interactions with VCAM-1” value is reported as “inhibits its interactions with VCAM-1”. Further, the “inhibition of ITGA9-VCAM1 binding” value on ITGA9-VCAM1 binding (Macitentan at 1 μM, FIG. 2) is recorded as “significantly inhibited”. In the data set on wild-type mice, the thrombosis incidence entry is given as “significantly reduced” and the thrombus weight entry was “significantly reduced”.
For the compound `Cc1ccc(-c2nn(C(C)(C)C)c3ncnc(N)c23)cc1` [PP1], the “inhibition of Src in vivo” value at Src is reported as “significant inhibition”. Besides, in data set [2], the IC50 is 170 nM.

Values taken from patent US20240423980A1, “METHODS OF PREVENTING A VENOUS THROMBOEMBOLIC EVENT” (Board of Supervisors of Louisiana State University and …, priority 2023, published 2024).
